The values below come from PubChem BioAssay AID463098 (The Scripps Research Institute Molecular Screening Center, 2010).

Calls of active or inactive are those of the source.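 How the source made its calls: active means compounds that block at least 90% of GSTO1 probe labeling in cell lysate; inactive means the rest.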

In this assay the target is Glutathione S-transferase omega-1 (Homo sapiens) (UniProt P78417). The assay can be described thus: endogenous GSTO1 inhibitors in proteome, late-stage follow-up, cell lysate, MDA-MB-435 proteome, gel ABPP, SE-Rh, percent inhibition (AID 463098). Particulars: gel ABPP SE-Rh fluorescence, at 1 µM, active compounds read high.
Chain of Glutathione S-transferase omega-1 (Homo sapiens) (P78417 whole entry, looked up): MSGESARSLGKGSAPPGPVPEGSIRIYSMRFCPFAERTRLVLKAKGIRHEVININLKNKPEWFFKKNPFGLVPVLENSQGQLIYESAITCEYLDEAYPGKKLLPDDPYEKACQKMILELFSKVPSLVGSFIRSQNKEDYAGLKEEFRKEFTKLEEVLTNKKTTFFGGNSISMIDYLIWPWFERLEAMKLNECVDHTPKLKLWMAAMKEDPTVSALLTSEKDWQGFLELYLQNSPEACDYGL
As for `COc1ccc(N(Cc2cc(=O)[nH]c3ccccc23)C(=O)CCl)cc1`, the inhibition was 38% (inactive). As for `CN(C)C(=O)CN1CCN(C(=O)CCl)CC1`, the figure is 3% (inactive). As for `CC1CCCN(C(=O)CCl)C1` (configuration not stated), the figure is 34% (inactive). As for `Cc1ccc2c(c1)c(=O)c1c3n2CCN(C(=O)CCl)C3CC1` (configuration not stated), the figure is 57% (inactive); as for `COc1cc2c(cc1OC)C(c1ccccc1)N(C(=O)CCl)CC2` (configuration not stated), 81% (inactive). `COc1cccc(N(C(=O)CCl)C(C(=O)NCCc2ccccc2)c2cccs2)c1` (configuration not stated): the inhibition was 75% (inactive). The value for `Cc1ccc(N(C(=O)CCl)C(C(=O)NC2CCCCC2)c2cccnc2)cc1C` (configuration not stated) was 76% (inactive); that for `CCCCCCN(C(=O)CCl)c1ccccc1` was 43% (inactive). The value for `CCCCCCCN(C(=O)CCl)c1ccccc1C` was 51% (inactive); that for `Cc1nn(-c2ccccc2)c(Cl)c1CN(C(=O)CCl)c1ccc(Cl)cc1` was 93%; that for `O=c1cc(CCl)nc2sc3ccccc3n12` was 83% (inactive).

As to `COc1ccc(N(C(=O)CCl)C(C(=O)NCCc2ccccc2)c2cccs2)cc1` (configuration not stated), the inhibition was 86% (inactive). Regarding `C=CCOc1ccccc1CN(C(=O)CCl)c1ccc2c(c1)OCO2`, the inhibition was 35% (inactive). As for `Cc1cccc(N(Cc2cc(=O)[nH]c3ccccc23)C(=O)CCl)c1`, the inhibition was 82% (inactive).

On to `COC(=O)CC1C(=O)NC2CCCCC2N1C(=O)CCl` (configuration not stated), for which the inhibition is 0% (inactive). For the compound `COc1cc2c(cc1OC)C(c1cc(Br)ccc1F)N(C(=O)CCl)CC2` (configuration not stated), the inhibition is 80% (inactive).

For the compound `Cc1ccc2c(c1)c1c3n2CCN(C(=O)CCl)C3CCC1` (configuration not stated), the inhibition was 96%. For `CC(=O)n1cc(N(C(=O)CCl)c2ccccc2)c2ccccc21`, the inhibition is 0% (inactive). The value for `CC(C)N(CC(=O)Nc1ccc(Cl)cc1C(F)(F)F)C(=O)CCl` was 7% (inactive); that for `COc1ccc(C(C(=O)NC2CCCCC2)N(C(=O)CCl)c2cccc(Cl)c2)cc1` (configuration not stated) was 100%; that for `COc1ccc(C(C(=O)NC2CCCCC2)N(C(=O)CCl)c2ccc(C)cc2)cc1` (configuration not stated) was 82% (inactive). As for `CCOc1ccc(CN(C)C(=O)CCl)cc1`, the figure is 47% (inactive). The value for `COc1cccc(-c2nc(CCl)cs2)c1` was 50% (inactive); that for `O=Cc1[nH]c2ccccc2c1N(C(=O)CCl)c1ccc([N+](=O)[O-])cc1` was 75% (inactive). `O=C(NC1CCCC1)C(c1ccc(F)cc1)N(Cc1ccccc1Cl)C(=O)CCl` (configuration not stated): the inhibition is 61% (inactive).

For the compound `O=C(NC1CCCCC1)C(c1cccnc1)N(C(=O)CCl)c1cccc(Cl)c1` (configuration not stated), the inhibition was 100%. Regarding `CCOC(=O)N1CCN(C(=O)CCl)CC1`, the inhibition is 22% (inactive).

As to `O=c1[nH]c(CCl)nc2cc(-c3ccc(F)cc3)sc12`, the inhibition was 100%. As for `Cc1nn(-c2ccc(Cl)cc2)c2[nH]c(CCl)cc(=O)c12`, the figure is 26% (inactive).

As to `COc1ccc(N(C(=O)CCl)C(C(=O)NCCc2ccccc2)c2cccs2)cc1Cl` (configuration not stated), the inhibition was 100%.

`CCCCCCCN(C(=O)CCl)c1cccc(C)c1`: the inhibition is 58% (inactive). As for `O=c1cc(CCl)nc2scc(-c3ccccc3)n12`, the figure is 22% (inactive).

As for `CCC(C)N(CC(=O)Nc1cccc(C)c1C)C(=O)CCl` (configuration not stated), the inhibition is 26% (inactive). Take `CCc1ccc(-c2nc(CCl)cs2)cc1`: the inhibition is 40% (inactive). The value for `O=C(O)C1Cc2ccccc2CN1C(=O)CCl` (configuration not stated) was 84% (inactive); that for `CC1CCc2c(sc3nc(C(C)(C)C)nc(N4CCN(C(=O)CCl)CC4)c23)C1` (configuration not stated) was 48% (inactive); that for `N#CCCN(C(=O)CCl)c1cccc(Cl)c1` was 69% (inactive).

`O=C(CCl)N1CCN(S(=O)(=O)c2ccc3ccccc3c2)CC1`: the inhibition was 100%. As for `O=C(CCl)N(C/C=C/c1ccccc1)c1ccc2c(c1)OCCO2`, the figure is 58% (inactive); as for `COCCN(C(=O)CCl)C(C(=O)NC1CCCCC1)c1ccccc1C` (configuration not stated), 25% (inactive). The value for `CCOC(=O)c1sc(N(Cc2ccccc2)C(=O)CCl)nc1C` was 82% (inactive); that for `CN(Cc1ccc(Cl)cc1)C(=O)CCl` was 18% (inactive); that for `Cc1nn(-c2ccccc2)c(Cl)c1CN(C(=O)CCl)c1cccc2ccccc12` was 34% (inactive).

As for `O=c1cc(CCl)nc(Cc2c(Cl)cccc2Cl)[nH]1`, the inhibition was 59% (inactive). For the compound `Cc1cccc(CN2CCN(C(=O)CCl)CC2)c1`, the inhibition is 90%. In the case of `O=C(CCl)N(c1ccccc1)C1CCCCC1`, the inhibition was 24% (inactive). As for `COc1ccccc1NS(=O)(=O)c1ccc2nc(CCl)[nH]c2c1`, the figure is 88% (inactive). As for `COc1ccc(C(C(=O)NC2CCCCC2)N(C(=O)CCl)c2ccc(Cl)cc2)cc1` (configuration not stated), the figure is 100%. The value for `CCC1(CC)Cc2ccccc2-c2nc(CCl)[nH]c(=O)c21` was 84% (inactive); that for `CC(=O)n1cc(N(C(=O)CCl)c2ccc(C)cc2)c2ccccc21` was 70% (inactive); that for `O=S(=O)(c1ccc(Cl)cc1)N1CCC2(CC1)CO2` was 94%. In the case of `O=C(CCl)N1c2ccccc2SCC1c1ccccc1` (configuration not stated), the inhibition was 65% (inactive).

With `CCCCCn1c(=O)c2ccccc2n2c(CCl)nnc12`, the inhibition was 73% (inactive). The value for `O=C(CCl)N1c2ccccc2OCC1c1ccccc1` (configuration not stated) was 37% (inactive); that for `O=C(NCCc1ccccc1)C(c1cccs1)N(C(=O)CCl)c1ccc(Cl)cc1` (configuration not stated) was 88% (inactive). As for `Cc1ccc(NC(=O)Cc2nc(CCl)cs2)cc1`, the figure is 55% (inactive). As for `COc1ccc(C(CCN(Cc2ccc(OC)c(OC)c2)C(=O)CCl)c2ccccc2)cc1` (configuration not stated), the figure is 100%; as for `O=C(CCl)N(Cc1ccccc1)c1ccccc1`, 56% (inactive).

Regarding `COc1ccc(N(C(=O)CCl)C(C(=O)NC2CCCCC2)c2cccnc2)cc1` (configuration not stated), the inhibition is 97%.

Regarding `O=C(NC1CCCCC1)C(c1cccnc1)N(C(=O)CCl)c1ccc(F)cc1` (configuration not stated), the inhibition is 100%. The value for `CN(Cc1ccc(Cl)s1)C(=O)CCl` was 83% (inactive). The value for `COC(=O)C1Cc2ccccc2CN1C(=O)CCl` (configuration not stated) was 40% (inactive).

In the case of `CCCN(C(=O)CCl)C1=CCCCC1`, the inhibition was 0% (inactive). The value for `CC1CCN(C(=O)CCl)CC1` was 53% (inactive); that for `COC(CN(C(=O)CCl)C(C(=O)NC1CCCCC1)c1ccccc1C)OC` (configuration not stated) was 0% (inactive); that for `COc1ccc(CN(CCC(c2ccccc2)c2ccc(OC(C)C)cc2)C(=O)CCl)cc1OC` (configuration not stated) was 81% (inactive). As for `Cc1ccc(N(Cc2cc(=O)[nH]c3ccccc23)C(=O)CCl)cc1`, the figure is 41% (inactive); as for `O=C(CCl)N(c1ccc(Cl)cc1)c1c[nH]c2ccccc12`, 23% (inactive).

For `O=C(CCl)N(Cc1cc(=O)[nH]c2ccccc12)c1ccccc1`, the inhibition was 38% (inactive). As for `CC(=O)n1cc(N(C(=O)CCl)c2ccc(Cl)cc2)c2ccccc21`, the figure is 38% (inactive). For the compound `CC(C)CCn1c(=O)c2ccccc2n2c(CCl)nnc12`, the inhibition was 87% (inactive).

`O=C(CCl)N(CCc1ccccc1)CCc1ccccc1`: the inhibition was 57% (inactive).

By inhibition is commonly meant how much of the control response was suppressed.
